From US7012042B1, “Methods and products to protect against root intrusion and plant and root growth” (Growguard, LLC, Inc., priority 2002, dated 2006)

What was measured:
[1] = Solubility of Trifluralin in methacrylate plasticizer/monomers; format: physicochemical; conditions: in ethyl methacrylate and lauryl methacrylate
Description: A novel solution involving the polymerization of the plasticizer that remains within the fiber (FIG. 8) has been developed. Thus, a plasticizer is chosen that also is a monomer. It was determined that Trifluralin is quite soluble in ethyl methacrylate and lauryl methacrylate. […] Thus, technical feasibility is evident up to this point in the process.

plant root = conditions: cited from earlier work

CCCN(CCC)c1c([N+](=O)[O-])cc(C(F)(F)F)cc1[N+](=O)[O-] [Trifluralin]
solubility [1]: quite soluble | concentration highly effective in preventing root elongation (plant root; 95% of the plants tested, prior efforts): 2–5 ppm | concentration required to inhibit root growth (plant root; a few of the plants tested, prior efforts): 10 ppm | concentration sufficient to inhibit root growth (plant root; in gels and water-saturated soils adjacent to a pipe leakage area): 5–10 ppm
